Usually AC50 stands for the midpoint of the concentration-response curve, whichever way the signal moves.

Results on 26 compounds are retold here after patent US20250171437A1 (Agios Pharmaceuticals,Inc., priority 2022, published 2025).

This assay has as its target T1, human PAH with the R408W mutation (A375 R408W cells) (Homo sapiens, UniProt P00439, R408W).
T1 construct: expressed in transfected cells
T1 sequence (P00439 1-452 R408W): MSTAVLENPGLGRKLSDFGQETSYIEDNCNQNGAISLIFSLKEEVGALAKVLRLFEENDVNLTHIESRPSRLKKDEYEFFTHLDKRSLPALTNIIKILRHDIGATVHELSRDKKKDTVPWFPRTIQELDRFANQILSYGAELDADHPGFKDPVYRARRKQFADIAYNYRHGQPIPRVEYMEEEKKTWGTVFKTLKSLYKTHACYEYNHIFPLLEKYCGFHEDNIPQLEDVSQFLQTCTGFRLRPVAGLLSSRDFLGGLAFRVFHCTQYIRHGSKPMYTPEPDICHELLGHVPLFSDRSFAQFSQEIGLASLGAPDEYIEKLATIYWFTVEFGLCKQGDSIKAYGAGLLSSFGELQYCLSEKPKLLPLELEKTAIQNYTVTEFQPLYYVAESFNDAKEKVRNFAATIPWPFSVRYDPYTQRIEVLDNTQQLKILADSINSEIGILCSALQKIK
In words: Cell Based Phenylalanine Flux Assay. To be noted: A375 R408W cells; 24 hrs with compound, then 20 μM sepiapterin and 800 μM 13C9,15N-Phenylalanine for 4 hours; 13C-Tyrosine by LC-MS; average where tested multiple times. The essentials: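 A375 cells stably expressing human PAH R408W treated 24 h at 37° C with a 10-point 2-fold dose curve in duplicate, 0.5% DMSO. Then 20 μM sepiapterin and 800 μM 13C9,15N-Phe added for 4 h; 13C-Tyr in media measured by LC-MS to give AC50.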
As for `O=C(c1oc(-c2ccncn2)nc1C(F)F)N1CCc2[nH]cnc2[C@@H]1c1nc2cccc(F)c2o1` [Example 774, (R)-(4-(difluoromethyl)-2-(pyrimidin-4-yl)oxazol-5-yl)(4-(7-fluorobenzo[d]oxazol-2-yl)-6,7-dihydro-1H-imidazo[4,5-c]pyridin-5(4H)-yl)methanone], the AC50 was at most 500 nM.
For `COc1cccc2nc([C@@H]3c4nc[nH]c4CCN3C(=O)c3ncnn3C)oc12` [Example 775, (S)-(4-(7-methoxybenzo[d]oxazol-2-yl)-6,7-dihydro-1H-imidazo[4,5-c]pyridin-5(4H)-yl)(1-methyl-1H-1,2,4-triazol-5-yl)methanone], the half-maximal activity concentration (AC50) is 500 to 1000 nM.
In the case of `COc1cccc2nc([C@H]3c4nc[nH]c4CCN3C(=O)c3ncnn3C)oc12` [Example 776, (R)-(4-(7-methoxybenzo[d]oxazol-2-yl)-6,7-dihydro-1H-imidazo[4,5-c]pyridin-5(4H)-yl)(1-methyl-1H-1,2,4-triazol-5-yl)methanone] it was 1000 to 5000 nM; in that of `COc1cccc2nc([C@@H]3c4nc[nH]c4CCN3C(=O)c3cc(C(F)F)nn3C)oc12` [Example 777, (S)-(3-(difluoromethyl)-1-methyl-1H-pyrazol-5-yl)(4-(7-methoxybenzo[d]oxazol-2-yl)-6,7-dihydro-1H-imidazo[4,5-c]pyridin-5(4H)-yl)methanone], at most 500 nM; in that of `COc1cccc2nc([C@H]3c4nc[nH]c4CCN3C(=O)c3cc(C(F)F)nn3C)oc12` [Example 778, (R)-(3-(difluoromethyl)-1-methyl-1H-pyrazol-5-yl)(4-(7-methoxybenzo[d]oxazol-2-yl)-6,7-dihydro-1H-imidazo[4,5-c]pyridin-5(4H)-yl)methanone], 500 to 1000 nM.
In the case of `Cc1cc(C(=O)N2CCc3[nH]cnc3[C@H]2c2nc3ccccc3o2)n(C)n1` [Example 779, (S)-(4-(benzo[d]oxazol-2-yl)-6,7-dihydro-1H-imidazo[4,5-c]pyridin-5(4H)-yl)(1,3-dimethyl-1H-pyrazol-5-yl)methanone], the half-maximal activity concentration (AC50) was 1000 to 5000 nM.
As to `Cc1cc(C(=O)N2CCc3[nH]cnc3[C@@H]2c2nc3ccccc3o2)n(C)n1` [Example 780, (R)-(4-(benzo[d]oxazol-2-yl)-6,7-dihydro-1H-imidazo[4,5-c]pyridin-5(4H)-yl)(1,3-dimethyl-1H-pyrazol-5-yl)methanone], the AC50 lay within 1000 to 5000 nM.
In the case of `Cc1cc(C(=O)N2CCc3[nH]cnc3[C@H]2c2nc3cccc(C)c3o2)n(C)n1` [Example 781, (S)-(1,3-dimethyl-1H-pyrazol-5-yl)(4-(7-methylbenzo[d]oxazol-2-yl)-6,7-dihydro-1H-imidazo[4,5-c]pyridin-5(4H)-yl)methanone] it was at most 500 nM; in that of `Cc1cc(C(=O)N2CCc3[nH]cnc3[C@@H]2c2nc3cccc(C)c3o2)n(C)n1` [Example 782, (R)-(1,3-dimethyl-1H-pyrazol-5-yl)(4-(7-methylbenzo[d]oxazol-2-yl)-6,7-dihydro-1H-imidazo[4,5-c]pyridin-5(4H)-yl)methanone], 500 to 1000 nM; in that of `Cc1ccc2oc([C@H]3c4nc[nH]c4CCN3C(=O)c3oc(-c4cn(C)cn4)nc3C(F)F)nc2c1` [Example 783, (R)-(4-(difluoromethyl)-2-(1-methyl-1H-imidazol-4-yl)oxazol-5-yl)(4-(5-methylbenzo[d]oxazol-2-yl)-6,7-dihydro-1H-imidazo[4,5-c]pyridin-5(4H)-yl)methanone], at most 500 nM.
In the case of `Cc1ccc2oc([C@@H]3c4nc[nH]c4CCN3C(=O)c3oc(-c4cn(C)cn4)nc3C(F)F)nc2c1` [Example 784, (S)-(4-(difluoromethyl)-2-(1-methyl-1H-imidazol-4-yl)oxazol-5-yl)(4-(5-methylbenzo[d]oxazol-2-yl)-6,7-dihydro-1H-imidazo[4,5-c]pyridin-5(4H)-yl)methanone] it was at most 500 nM.
Regarding `Cn1cnc(-c2nc(C(F)F)c(C(=O)N3CCc4[nH]cnc4[C@@H]3c3nc4ccccc4o3)o2)c1` [Example 785, (R)-(4-(benzo[d]oxazol-2-yl)-6,7-dihydro-1H-imidazo[4,5-c]pyridin-5(4H)-yl)(4-(difluoromethyl)-2-(1-methyl-1H-imidazol-4-yl)oxazol-5-yl)methanone], the concentration at half-maximal activity (AC50) is at least 5000 nM.
In the case of `Cn1cnc(-c2nc(C(F)F)c(C(=O)N3CCc4[nH]cnc4[C@H]3c3nc4ccccc4o3)o2)c1` [Example 786, (S)-(4-(benzo[d]oxazol-2-yl)-6,7-dihydro-1H-imidazo[4,5-c]pyridin-5(4H)-yl)(4-(difluoromethyl)-2-(1-methyl-1H-imidazol-4-yl)oxazol-5-yl)methanone] it was 500 to 1000 nM; in that of `Cn1ccc(-c2nc(C(F)(F)F)c(C(=O)N3CCc4[nH]cnc4[C@H]3c3nc4cc(F)ccc4o3)o2)n1` [Example 787, (S)-(4-(5-fluorobenzo[d]oxazol-2-yl)-6,7-dihydro-1H-imidazo[4,5-c]pyridin-5(4H)-yl)(2-(1-methyl-1H-pyrazol-3-yl)-4-(trifluoromethyl)oxazol-5-yl)methanone], at most 500 nM.
In the case of `Cn1ccc(-c2nc(C(F)(F)F)c(C(=O)N3CCc4[nH]cnc4[C@@H]3c3nc4cc(F)ccc4o3)o2)n1` [Example 788, (R)-(4-(5-fluorobenzo[d]oxazol-2-yl)-6,7-dihydro-1H-imidazo[4,5-c]pyridin-5(4H)-yl)(2-(1-methyl-1H-pyrazol-3-yl)-4-(trifluoromethyl)oxazol-5-yl)methanone] it was 1000 to 5000 nM; in that of `Cn1cnc(-c2nc(C(F)(F)F)c(C(=O)N3CCc4[nH]cnc4[C@@H]3c3nc4cc(F)ccc4o3)o2)c1` [Example 789, (R)-(4-(5-fluorobenzo[d]oxazol-2-yl)-6,7-dihydro-1H-imidazo[4,5-c]pyridin-5(4H)-yl)(2-(1-methyl-1H-imidazol-4-yl)-4-(trifluoromethyl)oxazol-5-yl)methanone], 1000 to 5000 nM; in that of `Cn1cnc(-c2nc(C(F)(F)F)c(C(=O)N3CCc4[nH]cnc4[C@H]3c3nc4cc(F)ccc4o3)o2)c1` [Example 790, (S)-(4-(5-fluorobenzo[d]oxazol-2-yl)-6,7-dihydro-1H-imidazo[4,5-c]pyridin-5(4H)-yl)(2-(1-methyl-1H-imidazol-4-yl)-4-(trifluoromethyl)oxazol-5-yl)methanone], 500 to 1000 nM.
In the case of `Cn1cncc1-c1nc(C(F)(F)F)c(C(=O)N2CCc3[nH]cnc3[C@H]2c2nc3cc(F)ccc3o2)o1` [Example 791, (S)-(4-(5-fluorobenzo[d]oxazol-2-yl)-6,7-dihydro-1H-imidazo[4,5-c]pyridin-5(4H)-yl)(2-(1-methyl-1H-imidazol-5-yl)-4-(trifluoromethyl)oxazol-5-yl)methanone] it was 500 to 1000 nM.
For the compound `Cn1cncc1-c1nc(C(F)(F)F)c(C(=O)N2CCc3[nH]cnc3[C@@H]2c2nc3cc(F)ccc3o2)o1` [Example 792, (R)-(4-(5-fluorobenzo[d]oxazol-2-yl)-6,7-dihydro-1H-imidazo[4,5-c]pyridin-5(4H)-yl)(2-(1-methyl-1H-imidazol-5-yl)-4-(trifluoromethyl)oxazol-5-yl)methanone], the AC50 lay within 1000 to 5000 nM.
In the case of `Cc1ncoc1C(=O)N1CCc2[nH]cnc2[C@H]1c1nc2ccccc2o1` [Example 793, (S)-(4-(benzo[d]oxazol-2-yl)-6,7-dihydro-1H-imidazo[4,5-c]pyridin-5(4H)-yl)(4-methyloxazol-5-yl)methanone] it was at most 500 nM; in that of `Cc1ncoc1C(=O)N1CCc2[nH]cnc2[C@@H]1c1nc2ccccc2o1` [Example 794, (R)-(4-(benzo[d]oxazol-2-yl)-6,7-dihydro-1H-imidazo[4,5-c]pyridin-5(4H)-yl)(4-methyloxazol-5-yl)methanone], 1000 to 5000 nM; in that of `O=C(c1ocnc1C(F)(F)F)N1CCc2[nH]cnc2[C@H]1c1nc2c(F)ccc(F)c2o1` [Example 795, (S)-(4-(4,7-difluorobenzo[d]oxazol-2-yl)-6,7-dihydro-1H-imidazo[4,5-c]pyridin-5(4H)-yl)(4-(trifluoromethyl)oxazol-5-yl)methanone], at most 500 nM.
In the case of `O=C(c1ocnc1C(F)(F)F)N1CCc2[nH]cnc2[C@@H]1c1nc2c(F)ccc(F)c2o1` [Example 796, (R)-(4-(4,7-difluorobenzo[d]oxazol-2-yl)-6,7-dihydro-1H-imidazo[4,5-c]pyridin-5(4H)-yl)(4-(trifluoromethyl)oxazol-5-yl)methanone] it was 500 to 1000 nM; in that of `O=C(c1ocnc1C(F)(F)F)N1CCc2[nH]cnc2[C@H]1c1nc2ccccc2o1` [Example 797, (S)-(4-(benzo[d]oxazol-2-yl)-6,7-dihydro-1H-imidazo[4,5-c]pyridin-5(4H)-yl)(4-(trifluoromethyl)oxazol-5-yl)methanone], at most 500 nM; in that of `O=C(c1ocnc1C(F)(F)F)N1CCc2[nH]cnc2[C@@H]1c1nc2ccccc2o1` [Example 798, (R)-(4-(benzo[d]oxazol-2-yl)-6,7-dihydro-1H-imidazo[4,5-c]pyridin-5(4H)-yl)(4-(trifluoromethyl)oxazol-5-yl)methanone], 500 to 1000 nM.
Regarding `O=C(c1nnc(-c2ncccc2F)o1)N1CCc2[nH]cnc2[C@@H]1c1nc2c(F)ccc(F)c2o1` [Example 799, (R)-(4-(4,7-difluorobenzo[d]oxazol-2-yl)-6,7-dihydro-1H-imidazo[4,5-c]pyridin-5(4H)-yl)(5-(3-fluoropyridin-2-yl)-1,3,4-oxadiazol-2-yl)methanone], the AC50 is 500 to 1000 nM.
